Test results reported in patent US7186756B2, “Steroid derivatives and use thereof as medicaments” (Inovat, priority 2003, dated 2007).

Test system: bone cells (line UMR 106 or G 292)
Assay: fixation of calcium in the extra cellular matrix of cultured bone cells (atomic spectrophotometry)
Format: cell-based
Conditions: for amount of fixed calcium in the extra cellular matrix of the osteoblasts: cells treated with 10 µg of calcium inhibitor, same conditions
Method: In the same conditions the cells are treated with 10 µg Verapamil or any other inhibitor of the calcium such as Cinchonine or Diltiazem.

Compound	amount of fixed calcium in the extra cellular matrix of the osteoblasts	fixed calcium (10 ng of Maltadiolone, in comparison with the untreated control cells, line UMR 106 or G 292)	fixative activity on the calcium (cells treated with both 1 μg IL-1 and 10 μg Maltadiolone)	concentration from which recovery of the fixation of calcium on the extra cellular matrix may be detected (same conditions as previously (IL-1 treated cells))
COc1ccc([C@@H]2Sc3ccccc3N(CCN(C)C)C(=O)[C@@H]2OC(C)=O)cc1 [Diltiazem]	equivalent to that of the cells treated with interleukin			
C=C[C@H]1C[N@@]2CC[C@H]1C[C@@H]2[C@@H](O)c1ccnc2ccccc12 [Cinchonine]	equivalent to that of the cells treated with interleukin			
2-oxo 3-hydroxy 25-ethylidene A-nor cholest-3-ene [Maltadiolone]		increase in the fixed calcium	restore a fixative activity on the calcium, equivalent to that of cells untreated with a calcium inhibitor	≥ 10 ng/mL
COc1ccc(CCN(C)CCCC(C#N)(c2ccc(OC)c(OC)c2)C(C)C)cc1OC (stereo not drawn) [Verapamil]	equivalent to that of the cells treated with interleukin			
